These results are taken from patent publication US12459931B2, “Benzothiophene derivative regulator, preparation method therefor and use thereof” (Shanghai Hansoh Biomedical Co., Ltd., priority 2019, dated 2025).

Data set [1] can be described thus: Pharmacokinetic assay in Balb/c mice (plasma and brain tissue). Particulars: p.o. 5 mg/kg; for AUC(0-t) / AUC(0-inf) / Cmax / MRT / half-life: male, Balb/c, mouse, po; for AUC(0-t): read-out: Area under curve AUC0-t; for AUC(0-inf): read-out: Area under curve AUC0-∞; for Cmax: read-out: Plasma concentration Cmax; for MRT: read-out: Average residence time MRT; for half-life: read-out: Half life t1/2 (converted). The data set is classed as in vivo. The procedure:
III. Pharmacokinetic Assay in Balb/c Mice
Balb/c mice were used as test animals. The pharmacokinetic behavior of the compounds of Examples of the present invention was studied in mouse body (plasma and brain tissue) by orally administration at a dose of 5 mg/kg.
Male Balb/c mice (12 mice per group), purchased from Shanghai Jiesijie Laboratory Animal Co., LTD, with Certificate No.: SCXK (Shanghai) 2013-0006 N0.311620400001794. • 2.3 Formulation of the preparation: […]
The test compound was dissolved in 0.5% CMC-Na (1% Tween80) by sonication to formulate a clear solution or homogeneous suspension. • 2.4 Administration:
After an overnight fast, male Balb/c mice (12 mice per group) were administered p.o. with the test compound at a dose of 5 mg/kg and a volume of 10 mL/kg. • 2.5 Sample collection:
0.2 mL of blood was taken from the heart of the mouse before administration and at 1, 2, 4, 8 and 24 hours after administration, and the mice were sacrificed with CO2. The samples were stored in EDTA-K2 tubes, and centrifuged for 6 minutes at 4° C., 6000 rpm to separate the plasma. The plasma samples were stored at −80° C. Whole brain tissue was taken out, weighed, placed in a 2 mL centrifuge tube, and stored at −80° C. • 2.6 Sample process:
1) 160 μL of acetonitrile was added to 40 μL of the plasma sample for precipitation, and then the mixture was centrifuged at 3500×g for 5 to 20 minutes.
2) 90 μL of acetonitrile containing internal standard (100 ng/mL) was added to 30 μL of the plasma and brain homogenate sample for precipitation, and then the mixture was centrifuged at 13000 rpm for 8 minutes.
3) 70 μL of water was added to 70 μL of the treated supernatant and mixed by vortex for 10 minutes. 20 μL of the solution was taken to analyze the concentration of the test compound by LC/MS/MS. LC/MS/MS analytical instrument: AB Sciex API 4000 Qtrap. • 2.7 Liquid chromatography analysis: • Liquid chromatography condition: Shimadzu LC-20AD pump • Chromatographic column: Agilent ZORBAX XDB-C18 (50×2.1 mm, 3.5 μm); Mobile phase: Eluent A was 0.1% formic acid in water, and Eluent B was acetonitrile • Flow rate: 0.4 mL/min • Elution time: 0-4.0 minutes the eluent is as follows:
The main parameters of pharmacokinetics were calculated by WinNonlin 6.1.

The target in another data set is 5-HT2A receptor (Homo sapiens (Human), UniProt P28223). The experiment in a line: Radioligand-receptor binding assay, 5-HT2A receptor ([3H]-Ketanserin). Particulars: [3H]-Ketanserin 2 nM, human 5-HT2A receptor membrane; read-out: 5HT-2A binding activity IC50. The protocol: Determination of the Binding Ability of the Compounds of the Present Invention to 5-HT2A Receptor
Sequence of 5-HT2A receptor (P28223 whole entry): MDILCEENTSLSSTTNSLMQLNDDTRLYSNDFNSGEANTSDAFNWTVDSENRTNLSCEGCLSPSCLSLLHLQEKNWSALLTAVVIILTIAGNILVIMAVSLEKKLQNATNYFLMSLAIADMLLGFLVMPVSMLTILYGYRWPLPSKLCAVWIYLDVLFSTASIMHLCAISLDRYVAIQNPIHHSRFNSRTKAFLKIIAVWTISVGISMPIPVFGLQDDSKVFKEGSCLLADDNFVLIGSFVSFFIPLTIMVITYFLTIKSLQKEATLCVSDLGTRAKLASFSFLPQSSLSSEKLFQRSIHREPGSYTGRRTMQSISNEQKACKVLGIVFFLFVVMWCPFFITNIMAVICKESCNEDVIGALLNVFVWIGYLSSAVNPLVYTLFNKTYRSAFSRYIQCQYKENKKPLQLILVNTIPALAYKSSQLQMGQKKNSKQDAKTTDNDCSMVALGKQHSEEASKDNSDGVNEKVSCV
The objective of this test example is to determine the affinity of the compounds for 5-HT2A receptor.
Assay buffer: 50 mM Tris-HCl pH 7.4, 4 mM CaCl2); wash solution: 50 mM Tris-HCl pH 7.4, stored at 4° C.; 0.5% PEI solution: 0.5 g PEI dissolve in 100 mL ddH2O, 4° C. storage of spare.
5 μL of the test compounds (0.005 nM to 100 nM, 10 concentrations in total) and 100 μL of buffer were added to a 96-well assay plate. 1.5 μL of cell membrane and 300 L of buffer were added to each well. The plate was shaken at 600 rpm for 5 min. A mixed solution of 100 μL of buffer and [^3H]-Ketanserin (the final concentration was 2 nM) was added to each well. The plate was shaken at 600 rpm for 5 min, and incubated at 27° C. for 30 min. The […]-96 GF/B filter plate pre-incubated with 0.5% PEI for 1 h was washed twice with the buffer (1 mL/well). The cell membrane suspension was added to the […]-96 GF/B filter plate, washed 4 times, and incubated at 55° C. for 10 min. 40 μL of ULTIMA GOLD was added to each well, and liquid scintillation counting was carried out.
(§1) The CPM (Counts per minute) values were determined by TopCount. […] The 10 concentrations of the compound were from 100 nM to 0.005 nM after 3-fold dilution of the reaction system. The percent inhibition rate and ten-point concentration data were fitted to the parametric nonlinear logistic equation by using GraphPad prism to calculate the IC50 values of the compound.

Data set [2] concerns the target Human Dopamine D3 Receptor (Homo sapiens (Human), UniProt P35462). In words: Radioligand-receptor binding assay, dopamine D3 receptor ([3H]-methylspiperone). Particulars: [3H]-methylspiperone 0.5 nM, human D3 receptor membrane. The procedure: Determination of the Binding Ability of the Compounds of the Present Invention to Dopamine D3 Receptor
The objective of this test example is to determine the affinity of the compounds for dopamine D3 receptor.
Assay buffer: 50 mM Tris-HCl pH 7.4, 10 mM MgCl2; wash solution: 50 mM Tris-HCl pH 7.4, stored at 4° C.; 0.5% PEI solution: 0.5 g PEI dissolve in 100 mL ddH2O, 4° C. storage of spare.
5 μL of the test compounds (0.005 nM to 100 nM, 10 concentrations in total) and 100 μL of buffer were added to a 96-well assay plate. 1 μL of cell membrane and 300 μL of buffer were added to each well, and the plate was shaken at 600 rpm for 5 min. A mixed solution of 100 μL of buffer and [^3H]-methylspiperone (the final concentration was 0.5 nM) was added to each well. The plate was shaken at 600 rpm for 5 min, and incubated at 27° C. for 30 min. The […]-96 GF/B filter plate pre-incubated with 0.5% PEI for 1 h was washed twice with the buffer (1 mL/well). The cell membrane suspension was added to the […]-96 GF/B filter plate, washed 4 times, and incubated at 55° C. for 10 min. 40 μL of ULTIMA GOLD was added to each well, and liquid scintillation counting was carried out.
as §1

For another data set, the target named is D3 receptor (Homo sapiens (Human), UniProt P35462). The experiment in a line: Effect on cAMP content in cells stably expressing D3 receptors (CHO-D3). The data set is classed as cell-based. Particulars: forskolin stimulated, activation. The procedure:
To determine the activation effect of the compounds on D3 receptor.
3. The experimental buffer (1*HBSS, 0.1% BSA, 20 mM HEPES and 500 μM IBMX) was prepared. The compound was diluted with the buffer. 2.5 μL of the compound solution was added to each well, and the plate was incubated at 37° C. for 10 minutes. The forskolin was diluted to 8 μM (8*) with the experimental buffer. […] The reaction plate was centrifuged at 200 g for 30 s at room temperature, and left to stand at 25° C. for 1 h. Data was collected using Envision.

Read-outs that look alike come from different tables or passages of the source.

Sequence of Human Dopamine D3 Receptor (P35462 whole entry): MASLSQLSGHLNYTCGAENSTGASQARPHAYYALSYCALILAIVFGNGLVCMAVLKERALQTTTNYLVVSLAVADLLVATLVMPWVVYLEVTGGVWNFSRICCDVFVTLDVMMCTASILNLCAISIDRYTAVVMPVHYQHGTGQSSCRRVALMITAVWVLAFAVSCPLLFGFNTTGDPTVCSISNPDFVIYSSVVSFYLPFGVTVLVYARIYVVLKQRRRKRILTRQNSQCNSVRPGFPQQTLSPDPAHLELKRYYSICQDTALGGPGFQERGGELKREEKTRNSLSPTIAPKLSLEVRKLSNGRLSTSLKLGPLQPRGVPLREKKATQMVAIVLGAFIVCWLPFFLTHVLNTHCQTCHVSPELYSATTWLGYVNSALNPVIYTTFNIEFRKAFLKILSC
Sequence of D3 receptor (P35462 whole entry): as above

Usually MRT stands for a mean duration of stay, worked out from the concentration-time curve. Usually IC50 stands for the concentration that gives 50% inhibition. In the case of `CC(C)(O)C(=O)N[C@H]1CC[C@H](CCN2CCN(c3cccc4sccc34)CC2)CC1` [Example 41, N-(Trans-4-(2-(4-(benzo[b]thiophen-4-yl)piperazin-1-yl)ethyl)cyclohexyl)-2-hydroxy-2-methylpropanamide], in data set [1] (Brain), the Peak time tmax was determined as 1 h, the AUC(0-t) stood at 8120 ng·h/mL, the AUC(0-inf) came to 13000 ng·h/mL and the Cmax was determined as 731 ng/mL. In data set [1] (Plasma), the Peak time tmax worked out at 1 h, the AUC(0-t) was 5210 ng·h/mL, the AUC(0-inf) is 6370 ng·h/mL and the MRT was determined as 13.5 h. Moreover, in data set [1] (Plasma), the half-life is 10.2 h and the Cmax stood at 452 ng/mL. The concentration for half-maximal inhibition (IC50) at 5-HT2A receptor turned out to be 430 pM. The IC50 in data set [2] amounted to 1030 pM.

The EC50 is the concentration giving half of the maximal effect. A low value points to a more potent agent. Compound `O=C(N[C@H]1CC[C@H](CCN2CCN(c3cccc4sccc34)CC2)CC1)C1(O)CC1` [Example 42, N-(Trans-4-(2-(4-(benzo[b]thiophen-4-yl)piperazin-1-yl)ethyl)cyclohexyl)-1-hydroxycyclopropane-1-carboxamide] registered a half-maximal effective concentration (EC50) on D3 receptor of 1100 pM. In addition, in data set [1] (Brain), the Peak time tmax worked out at 1 h, the AUC(0-t) was 3610 ng·h/mL, the AUC(0-inf) was determined as 3890 ng·h/mL and the Cmax was 330 ng/mL. Also, in data set [1] (Plasma), the Peak time tmax is 1 h, the AUC(0-t) worked out at 4240 ng·h/mL, the AUC(0-inf) was found to be 4370 ng·h/mL and the MRT stood at 6.84 h. In data set [1] (Plasma), the half-life is 4.84 h and the Cmax was determined as 477 ng/mL. For the same compound, the IC50 at 5-HT2A receptor was 260 pM. The IC50 in data set [2] was 200 pM.
